Reference: US12295970B2, “Imidazoquinoline compounds and prodrugs thereof” (UNIVERSITY OF KANSAS, priority 2019, dated 2025)

Tests used:
[1] = In vitro release kinetics (dialysis method); assay type: physicochemical
Experimental: Solutions (1 mL) of free R848 in DMSO, R848/HA-Toco in water, R848-Toco in DMSO, and R848-Toco/HA-Toco in water, with a concentration of 1 mg/mL on R848 basis were dialyzed using SnakeSkin® dialysis tubing (MWCO […]) against 30 mL of phosphate buffered saline release medium (PBS, 10 mM sodium phosphate, 137 mM NaCl, pH 7.4) with 0.5% (w/v) polysorbate 80 at 37° C. At predetermined time points, 1 mL aliquots of release medium were sampled and replaced with an equal volume of fresh medium. The samples were kept frozen (−20° C.) until HPLC analysis.
Results: The in vitro release profiles of R848 and R848-Toco from the HA-Toco were studied using a dialysis method. […] The release of parent R848 formulated with HA-Toco was tested in PBS media, with free R848 dissolved in DMSO as a control. Similar release kinetics were observed whether R848 was formulated with HA-Toco or without ([…]), and in both conditions nearly 100% of the agonist was released over 24 h (FIG. 4A).

Hydrolysis of R848-Toco = assay type: physicochemical
Experimental: For hydrolysis, R848-Toco (0.1 mg) was dissolved in 1 mL of DMSO, and the solution was added into 9 mL of hydrolysis media (PBS or 0.5% (w/v) polysorbate 80/PBS). The solution was then rapidly mixed and filtered using a syringe filter (0.22 μm×13 mm, nylon). The filtrate was then incubated at 37° C. under agitation (250 rpm). At predetermined time points, 50 μL of the solution was sampled and analyzed immediately by HPLC.

human TLR7 (hTLR7) = target: T1, human TLR7 (hTLR7) (Homo sapiens, UniProt Q9NYK1); test: In vitro TLR7 activity assay (HEK-Blue hTLR7, QUANTI-Blue, Example 3); assay type: cell-based; conditions: 16 h incubation; Null 1-k subtracted
T1 construct: host or cells: HEK-293 (HEK-Blue hTLR7)
T1 sequence (Q9NYK1 27-1049): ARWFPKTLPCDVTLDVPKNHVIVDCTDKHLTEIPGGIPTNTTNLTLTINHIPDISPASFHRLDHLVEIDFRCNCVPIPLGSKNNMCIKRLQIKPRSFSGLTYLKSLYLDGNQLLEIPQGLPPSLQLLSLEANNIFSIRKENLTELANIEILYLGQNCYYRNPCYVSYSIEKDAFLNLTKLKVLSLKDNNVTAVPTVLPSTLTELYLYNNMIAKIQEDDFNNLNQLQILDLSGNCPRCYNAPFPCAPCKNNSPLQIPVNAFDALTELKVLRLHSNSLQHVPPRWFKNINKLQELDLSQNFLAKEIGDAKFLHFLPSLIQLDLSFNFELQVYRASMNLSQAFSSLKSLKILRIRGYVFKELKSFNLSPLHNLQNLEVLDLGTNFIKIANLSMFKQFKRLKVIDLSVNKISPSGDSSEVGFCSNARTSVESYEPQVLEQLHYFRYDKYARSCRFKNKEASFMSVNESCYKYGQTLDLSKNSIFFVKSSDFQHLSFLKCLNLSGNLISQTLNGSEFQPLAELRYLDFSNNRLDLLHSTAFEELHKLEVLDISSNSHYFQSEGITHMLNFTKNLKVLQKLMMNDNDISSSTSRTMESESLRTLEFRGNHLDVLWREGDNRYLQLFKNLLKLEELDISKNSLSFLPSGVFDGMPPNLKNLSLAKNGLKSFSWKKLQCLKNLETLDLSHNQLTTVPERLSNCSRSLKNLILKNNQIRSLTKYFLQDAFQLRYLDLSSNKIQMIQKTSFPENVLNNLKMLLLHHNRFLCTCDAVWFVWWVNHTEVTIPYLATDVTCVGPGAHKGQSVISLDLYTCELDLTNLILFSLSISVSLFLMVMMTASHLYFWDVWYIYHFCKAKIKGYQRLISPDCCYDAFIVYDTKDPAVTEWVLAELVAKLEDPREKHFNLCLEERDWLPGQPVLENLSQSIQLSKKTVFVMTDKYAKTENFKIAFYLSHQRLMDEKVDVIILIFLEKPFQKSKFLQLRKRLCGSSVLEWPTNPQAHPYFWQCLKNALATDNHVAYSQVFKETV
Experimental: TLR agonist activity was measured in a dose-response study using reporter cell lines expressing the human TLR7 (hTLR7). […] The hTLR7 activity of R848-Toco, the formulation and its components were assessed using HEK-293 cells co-transfected with the hTLR7 gene and an inducible SEAP reporter gene along with the corresponding null control line (HEK-Blue™ hTLR7 and Null-1k cells, Invivogen). Cells were maintained in DMEM media with selective antibiotics according to the manufacturer protocol.^26 HEK-Blue™ cells were seeded into 96 well plates at a density of 220,000 cells/mL with 180 μL/well of culture medium. Stock solutions in DMSO were first serially diluted to seven concentrations (DMSO solutions further diluted into H2O). Each well was stimulated with 20 μL of agonists or agonist-free controls (equivalent concentration of HA-Toco, D-α-Tocopherol succinate, PBS or […] DMSO) at the determined final concentrations in 5 replicates. After 16 h of incubation at 37° C. in a 5% CO2 atmosphere, 20 μL of the supernatant from each well was sampled and spiked into 180 μL of QUANTI-Blue™ solution followed by incubation for 1 h at 37° C. Relative hTLR7 activity was then analyzed by UV-Vis at 637 nm using a microplate UV reader (SpectraMAX GeminiXS, Molecular Devices, San Jose, CA, USA). For each compound and concentration, a corresponding sample was applied to the HEK-Blue™ Null-1k cell line. The TLR7 agonist activity was determined after averaging across hTLR7 replications and subtracting the averaged Null response.
Activation levels were calculated as the difference between the average readings of the hTLR7 cell line and the Null 1-k cell line, to account for non-hTLR7 related induction of NF-κB. […] Therefore, this study confirmed that R848-Toco, formulated with HA-Toco as an emulsion, maintained its TLR agonist activity. […]

canine PBMCs = test: In vitro cytokine secretion assay in canine PBMCs (Example 3); assay type: cell-based; conditions: 15 hours, ELISA
Text: As a TLR7/8 agonist, R848 binds to endosomal TLR7 and 8 receptors located on antigen presenting cells (APCs). The activation of APCs produces pro-inflammatory cytokines including TNF-α, type I IFN and IL-12. These cytokines, together with stimulated APCs that take up tumor antigens, enhance the activation of anti-tumor Th-1 immune responses that involve both CD4^+ T helper cells and CD8^+ cytotoxic T cells.^16 To evaluate the Th-1 associated cytokine production in vitro, isolated canine PBMCs were treated with R848, formulated or unformulated R848-Toco, and the secretion of TNF-α and IL-12 were measured by ELISA as markers of generalized inflammatory response. Canines were chosen as a model over mice because of the greater genetic similarity to humans and more similar immune systems.^46 Peripheral blood from healthy canine donors of 7-10 years age (similar to the age of typical canines with cancer^14) was obtained with appropriate informed consent of the owner. Blood (8 mL per tube) was drawn via sterile venipuncture into a BD Vacutainer cell preparation tube containing sodium heparin (BD Biosciences). PBMCs were isolated within one hour following procurement by density gradient centrifugation according to the manufacturer protocol and resuspended to 3×10^6 cells/mL in sterile RPMI 1640 medium with L-glutamine (Gibco) supplemented with 100 IU/mL penicillin, 100 μg/mL streptomycin (Corning) and 10% (v/v) heat-inactivated Fetalgro (RMBIO). Corning 3917, 96-well tissue culture treated plates were seeded with the PBMC suspension (180 μL/well), 20 μL of the serially diluted R848 samples were added in triplicate and HA-Toco vehicle in duplicate to yield the desired concentrations in a 1% (v/v) DMSO cell suspension. […] Sample cytokine concentrations were determined by interpolation of a four-parameter logistic curve of the recombinant standards using GraphPad Prism 6. […] Cytokine secretion levels were measured by ELISA (Duoset, R&D Systems, Minneapolis, MN, USA) according to the manufacturer protocol.

[2] = Solubility in water (in words); assay type: physicochemical
mast cell tumors = conditions: 86 canine patients (7 complete response and 25 partial response); cited from earlier work

| SMILES | released over the first 24 h ([1]; 0.5% w/v polysorbate 80 solution of PBS) [%] | release profile (in words) ([1]; PBS, pH 7.4) | hydrolyzed products observed by HPLC (Hydrolysis of R848-Toco; hydrolysis sample at 8 h) | R848-Toco hydrolyzed to R848 (Hydrolysis of R848-Toco; initial 8 h, 37° C.) [%] | hTLR7 activation (NF-κB, in words) (human TLR7 (hTLR7)) | IL-12 levels (canine PBMCs) | solubility in water [2] | response rate (mast cell tumors) [%] |
| --- | --- | --- | --- | --- | --- | --- | --- | --- |
| CCOCc1nc2c(N)nc3ccccc3c2n1CC(C)(C)OC(=O)CCC(=O)Oc1c(C)c(C)c2c(c1C)CC[C@@](C)(CCC[C@H](C)CCC[C@H](C)CCCC(C)C)O2 [Compound R848-Toco] | 76 | burst release within the first half hour | R848, which was the only observed hydrolyzed product | 72 | much less active | lower expression | poorly soluble in water |  |
| Cc1[nH]c(/C=C2\C(=O)Nc3ccc(F)cc32)c(C)c1C(=O)NCCN1CCCC1.O=P(O)(O)O [toceranib phosphate] |  |  |  |  |  |  |  | 37.2 |
